Reference: patent EP4273147A1, “SUBSTITUTED SPIROLACTAMS, SALTS THEREOF AND THEIR USE AS HERBICIDALLY ACTIVE SUBSTANCES” (Bayer Aktiengesellschaft, priority 2022, dated 2023)

Tests used:
[1] = system: TRZAS; assay: Post-emergence effects on crop plants (Table F2); assay type: in vivo, Triticum aestivum; conditions: application rate 320 g/ha, crop plant TRZAS
Text: (§1) 2 to 3 weeks after sowing, the test plants were sprayed in the single-leaf stage.

[2] = system: VERPE; assay: Herbicidal pre-emergence action (Table A11); assay type: in vivo, Veronica persica; conditions: application rate 1280 g/ha; visual grading after ca. 3 weeks
In short: (§2)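 In each pot of sandy loam, seed of a single monocot weed species was sown alongside seed of a single dicot weed species, and the seed was covered with soil.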

[3] = system: STEME; assay: Herbicidal pre-emergence action (Table A6); assay type: in vivo, Stellaria media; conditions: application rate 320 g/ha; visual grading after ca. 3 weeks
In short: as §2

[4] = system: ALOMY; assay: Herbicidal pre-emergence action (Table A9); assay type: in vivo, Alopecurus myosuroides; conditions: application rate 1280 g/ha; visual grading after ca. 3 weeks
In short: as §2

[5] = system: MATIN; assay: Herbicidal pre-emergence action, section C (Table C8); assay type: in vivo, Matricaria inodora; conditions: application rate 320 g/ha; visual grading after ca. 3 weeks
[6] = system: ORYZA; assay: Pre-emergence effects on crop plants (Table D3); conditions: crop plant; application rate 80 g/ha; visual grading after ca. 3 weeks
[7] = system: AMARE; assay: Herbicidal pre-emergence action (Table A8); assay type: in vivo, Amaranthus retroflexus; conditions: application rate 1280 g/ha; visual grading after ca. 3 weeks vs untreated controls (100% = plants have died off, 0% = as control plants)
In short: as §2

[8] = system: LOLRI; assay: Herbicidal pre-emergence action, section C (Table C7); assay type: in vivo, Lolium rigidum; conditions: application rate 320 g/ha; visual grading after ca. 3 weeks
Text: (§4) Seeds of mono- and dicotyledonous weed plants and crop plants were sown, in plastic or organic planting pots, in sandy loam and covered with soil. The compounds according to the invention, formulated in the form of wettable powders (WP) or as emulsifiable concentrates (EC), were applied to the surface of the covering soil as aqueous suspension or emulsion, with the addition of 0.5% of an additive, at an application rate of 600 1 of water/ha (converted). Following treatment, the pots were placed in a greenhouse and kept under optimum growth conditions for the test plants.

[9] = system: VIOTR; assay: Herbicidal pre-emergence action, section C (Table C12); assay type: in vivo, Viola tricolor; conditions: application rate 80 g/ha; visual grading after ca. 3 weeks
Text: as §4

[10] = system: ZEAMX; assay: Post-emergence effects on crop plants (Table F1); assay type: in vivo, Zea mays; conditions: application rate 320 g/ha, crop plant ZEAMX
Text: as §1

[11] = system: DIGSA; assay: Herbicidal pre-emergence action (Table A12); assay type: in vivo, Digitaria sanguinalis; conditions: visual grading after ca. 3 weeks
In short: as §2

[12] = system: ECHCG; assay: Herbicidal pre-emergence action, section C (Table C6); assay type: in vivo, Echinochloa crus-galli; conditions: application rate 80 g/ha; visual grading after ca. 3 weeks
[13] = system: SETVI; assay: Herbicidal post-emergence action (Table B8); assay type: in vivo, Setaria viridis; conditions: application rate 1280 g/ha
In short: (§3)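 Greenhouse pot assay, sandy loam soil, one weed species per pot. Application at one-leaf stage. Readout ~3 wk post-treatment: visual % activity, 100 = dead, 0 = as untreated.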

[14] = system: DIGSA; assay: Herbicidal pre-emergence action, section C (Table C5); assay type: in vivo, Digitaria sanguinalis; conditions: visual grading after ca. 3 weeks
[15] = system: ECHCG; assay: Herbicidal post-emergence action (Table B3); assay type: in vivo, Echinochloa crus-galli; conditions: application rate 1280 g/ha; rated visually after about 3 weeks
In short: as §3

[16] = system: ZEAMX; assay: Pre-emergence effects on crop plants (Table D1); assay type: in vivo, Zea mays; conditions: crop plant, visual grading after ca. 3 weeks
Text: Seeds of mono- and dicotyledonous weed plants and crop plants were sown, in plastic or organic planting pots, in sandy loam and covered with soil. The compounds according to the invention, formulated in the form of wettable powders (WP) or as emulsifiable concentrates (EC), were applied to the surface of the covering soil as aqueous suspension or emulsion, with the addition of 0.5% of an additive, at an application rate of 600 1 of water/ha (converted).
Following treatment, the pots were placed in a greenhouse and kept under optimum growth conditions for the test plants.

[17] = system: ABUTH; assay: Herbicidal pre-emergence action, section C (Table C1); assay type: in vivo, Abutilon theophrasti; conditions: application rate 320 g/ha; visual grading after ca. 3 weeks
[18] = system: ORYZA; assay: Post-emergence effects on crop plants (Table F3); assay type: in vivo, Oryza sativa; conditions: application rate 320 g/ha, crop plant ORYZA
Text: as §1

[19] = system: SETVI; assay: Herbicidal pre-emergence action, section C (Table C10); assay type: in vivo, Setaria viridis; conditions: application rate 320 g/ha; visual grading after ca. 3 weeks
[20] = system: MATIN; assay: Herbicidal pre-emergence action (Table A4); assay type: in vivo, Matricaria inodora; conditions: application rate 1280 g/ha; visual grading after ca. 3 weeks
In short: as §2

[21] = system: KCHSC; assay: Herbicidal pre-emergence action (Table A10); assay type: in vivo, Kochia scoparia; conditions: application rate 320 g/ha; visual grading after ca. 3 weeks
In short: as §2

[22] = system: ABUTH; assay: Herbicidal post-emergence action, section E (Table E1); assay type: in vivo, Abutilon theophrasti; conditions: application rate 320 g/ha; assessed visually after ca. 3 weeks
Text: as §1

[23] = system: ECHCG; assay: Herbicidal pre-emergence action (Table A2); assay type: in vivo, Echinochloa crus-galli; conditions: visual grading after ca. 3 weeks
In short: as §2

[24] = system: ABUTH; assay: Herbicidal pre-emergence action (Table A1); assay type: in vivo, Abutilon theophrasti; conditions: application rate 1280 g/ha; visual grading after ca. 3 weeks vs untreated controls (100% = plants have died off, 0% = as control plants)
In short: as §2

[25] = system: ALOMY; assay: Herbicidal pre-emergence action, section C (Table C2); assay type: in vivo, Alopecurus myosuroides; conditions: application rate 320 g/ha; visual grading after ca. 3 weeks
[26] = system: DIGSA; assay: Herbicidal post-emergence action (Table B12); assay type: in vivo, Digitaria sanguinalis; conditions: application rate 1280 g/ha
In short: as §3

[27] = system: POAAN; assay: Herbicidal pre-emergence action (Table A7); assay type: in vivo, Poa annua; conditions: application rate 320 g/ha; visual grading after ca. 3 weeks
In short: as §2

[28] = system: VERPE; assay: Herbicidal pre-emergence action, section C (Table C11); assay type: in vivo, Veronica persica; conditions: visual grading after ca. 3 weeks
Text: as §4

[29] = system: LOLRI; assay: Herbicidal pre-emergence action (Table A3); assay type: in vivo, Lolium rigidum; conditions: application rate 320 g/ha; visual grading after ca. 3 weeks
In short: as §2

[30] = system: SETVI; assay: Herbicidal pre-emergence action (Table A5); assay type: in vivo, Setaria viridis; conditions: application rate 320 g/ha; visual grading after ca. 3 weeks
In short: as §2

[31] = system: VIOTR; assay: Herbicidal post-emergence action, section E (Table E10); assay type: in vivo, Viola tricolor; conditions: application rate 320 g/ha; assessed visually after ca. 3 weeks
Text: as §1

[32] = system: TRZAS; assay: Pre-emergence effects on crop plants (Table D2); assay type: in vivo, Triticum aestivum; conditions: crop plant; application rate 320 g/ha; visual grading after ca. 3 weeks
[33] = system: VERPE; assay: Herbicidal post-emergence action (Table B10); assay type: in vivo, Veronica persica; conditions: application rate 1280 g/ha
In short: as §3

[34] = system: ECHCG; assay: Herbicidal post-emergence action, section E (Table E5); assay type: in vivo, Echinochloa crus-galli; conditions: application rate 320 g/ha; assessed visually after ca. 3 weeks
Text: as §1

[35] = system: LOLRI; assay: Herbicidal post-emergence action (Table B5); assay type: in vivo, Lolium rigidum; conditions: application rate 1280 g/ha; rated visually after about 3 weeks
In short: as §3

[36] = system: POLCO; assay: Herbicidal pre-emergence action, section C (Table C9); assay type: in vivo, Polygonum convolvulus; conditions: application rate 320 g/ha; visual grading after ca. 3 weeks
Text: as §4

[37] = system: MATIN; assay: Herbicidal post-emergence action (Table B6); assay type: in vivo, Matricaria inodora; conditions: application rate 1280 g/ha; rated visually after about 3 weeks
In short: as §3

[38] = system: VERPE; assay: Herbicidal post-emergence action, section E (Table E9); assay type: in vivo, Veronica persica; conditions: application rate 320 g/ha; assessed visually after ca. 3 weeks
Text: as §1

[39] = system: POAAN; assay: Herbicidal post-emergence action (Table B7); assay type: in vivo, Poa annua; conditions: application rate 1280 g/ha
In short: as §3

[40] = system: ABUTH; assay: Herbicidal post-emergence action (Table B1); assay type: in vivo, Abutilon theophrasti; conditions: application rate 1280 g/ha; treated at one-leaf stage; rated visually after about 3 weeks vs untreated controls (100% = plants have died, 0% = like control plants)
In short: as §3

Row | Structure (SMILES) | post-emergence activity against TRZAS [1] | pre-emergence activity against VERPE [2] | pre-emergence activity against STEME [3] | pre-emergence activity against MATIN [5] | pre-emergence activity against AMARE [7] | pre-emergence activity against LOLRI [8] | pre-emergence activity against VIOTR [9] | post-emergence activity against ZEAMX [10] | pre-emergence activity against ECHCG [12] | post-emergence activity against ECHCG [15] | post-emergence activity against ORYZA [18] | pre-emergence activity against SETVI [19] | pre-emergence activity against MATIN [20] | pre-emergence activity against KCHSC [21] | post-emergence activity against ABUTH [22] | pre-emergence activity against ALOMY [25] | post-emergence activity against DIGSA [26] | pre-emergence activity against POAAN [27] | pre-emergence activity against LOLRI [29] | pre-emergence activity against SETVI [30] | further results
1 | O=C1N(Cc2ccccc2F)CCCC12CCN(Cc1c(F)cccc1F)C2=O (racemic) [I-020] | 0% | 90% | 90% | 80% | 90% | 100% | 90% | 20% | 100% | 90% | 0% | 100% | 90% | 90% | 80% | 100% | 90% | 100% | 100% | 100% | pre-emergence activity against ALOMY [4]: 90%; pre-emergence activity against ORYZA [6]: 0%; pre-emergence activity against DIGSA ([11]; application rate 320 g/ha): 100%; post-emergence activity against SETVI [13]: 90%; pre-emergence activity against DIGSA ([14]; application rate 80 g/ha): 100%; pre-emergence activity against ZEAMX ([16]; application rate 80 g/ha): 0%; pre-emergence activity against ABUTH [17]: 90%; pre-emergence activity against ECHCG ([23]; application rate 1280 g/ha): 100%; pre-emergence activity against ABUTH [24]: 90%; pre-emergence activity against VERPE ([28]; application rate 320 g/ha): 90%; post-emergence activity against VIOTR [31]: 80%
2 | O=C1N(Cc2cccc(F)c2F)CCCC12CCN(Cc1cccc(F)c1F)C2=O (racemic) [I-025] | 0% | 90% | 90% | 90% | 90% | 90% | 90% | 0% | 100% | 90% | 0% | 90% | 90% | 90% | 80% | 100% | 90% | 100% | 100% | 100% | pre-emergence activity against TRZAS [32]: 10%; post-emergence activity against VERPE [33]: 90%; post-emergence activity against ECHCG [34]: 80%; post-emergence activity against LOLRI [35]: 90%; pre-emergence activity against DIGSA ([11]; application rate 1280 g/ha): 100%; pre-emergence activity against POLCO [36]: 90%; pre-emergence activity against DIGSA ([14]; application rate 320 g/ha): 100%; pre-emergence activity against ZEAMX ([16]; application rate 320 g/ha): 0%; post-emergence activity against MATIN [37]: 90%; post-emergence activity against VERPE [38]: 80%; pre-emergence activity against ECHCG ([23]; application rate 320 g/ha): 100%; post-emergence activity against POAAN [39]: 90%; post-emergence activity against ABUTH [40]: 90%; pre-emergence activity against VERPE ([28]; application rate 80 g/ha): 90%
